Five molecules from PMC7143549, “Anticancer Activities of Meroterpenoids Isolated from the Brown Alga Cystoseira usneoides against the Human Colon Cancer Cells HT-29” (Foods, 2020) can be followed below.

Molecules are shown by their SMILES. Converted amounts (≈) assume the structure as drawn. A value given as a limit tells only on which side of the number the result lay.

In experiment [1] the test system is normal human colonic epithelial cells CCD 841 CoN. The experiment is described as follows: Sulforhodamine B (SRB) cell viability assay, CCD 841 CoN. It counts as cell-based. The note with it: normal colon cells, 72 h of treatment, mean ± SE of three experiments, read-out: IC50 CCD841 CoN. How it is done:
(§1) Cell viability was quantified using the Sulforhodamine B assay described by Skehan et al.. Cells were plated with a density of 5 × 10^3 (HT-29) and 1 × 10^4 (CCD 841 CoN) cells/well and allowed to attach at 37 °C in an atmosphere with 5% CO2. After 24 h, the AMTs dissolved in DMSO were added to the cells (final concentrations of 10, 20, 30, and 50 µg/mL and less than 0.05% of DMSO) and the plates were incubated for 72 h. Then, the cells were fixed by adding 50 μL of TCA (50%) to each well and the plates were maintained for 1 h at 4 °C. The plates were washed five times with deionized water, air-dried, and stained for 30 min at room temperature with 100 μL of 0.4% (w/v) SRB prepared in 1% (v/v) acetic acid. The plates were rinsed quickly five times with 1% acetic acid to remove unbound dye, followed by air-drying. The bound dye was solubilized in 2 mM Tris base (100 μL/well) for 5 min. Optical densities were read on a microplate reader (Spectrophotometer LabsystemsMultiskan EX, λ 492 nm). Three independent assays were conducted, each one in duplicate. A standard curve was constructed for each experiment and used for converting the measured optical density values into numbers of viable cells/well. The inhibition rate was used to evaluate the cell viability and its algorithm was the following formula: ((ODcontrol − ODtreatment)/ODcontrol) × 100; OD, optical density. The OD492 for control cells was taken as 100% viability. The half maximal inhibitory concentration (IC50) was calculated. The selectivity index (SI) of each compound was calculated as IC50 of the compound against the CCD 841 CoN normal cell line/IC50 of the same compound against the HT-29 cancer cell line.

The next experiment relates to HT-29 colon cancer cells. The experiment is described as follows: Annexin V-FITC/PI flow cytometry apoptosis induction assay. It counts as cell-based, human. The note with it: 24 h; for necrosis (dead cells): 30 μg/mL. How it is done:
Quantitative assessment of apoptosis was performed by flow cytometry using an Annexin V-FITC Apoptosis Detection Kit. Briefly, 1 × 10^6 HT-29 cells were seeded per well in six-well plates and incubated for 24 h, followed by the addition of the AMTs dissolved in DMSO (final concentrations of 10, 20, and 30 µg/mL for compounds 1, 2, 5, 6, 7, and 8, and 30, 60, and 90 µg/mL for compounds 3 and 4, and less than 0.05% DMSO) and incubation for 24 h. Curcumin (final concentrations of 50 and 75 μM) was used as positive control. The cells were then washed, harvested with trypsin, and centrifuged at 1500 rpm (5 min, 25 °C). The pellet was resuspended in 195 µL of 1 × Annexin buffer and then stained with 5 μL of Annexin V-FITC and 10 μL of PI for 10 min at room temperature, in the dark. To this mixture 200 μL of 1 × Annexin buffer was added before analysis using a Cytomics FC500 flow cytometer (Beckman Coulter, Indianapolis, IN, USA). Following a gating strategy, flow cytometry plots of size (FS) and complexity (SS) of the HT-29 cells were previously established for the elaboration of a measurement protocol. The normal healthy cells, early apoptosis, late apoptosis, and necrotic populations were represented by annexin V-negative/PI-negative population, annexin V-positive/PI-negative, annexin V-positive/PI-positive and annexin-negative/PI-positive cells, respectively. A total of 10,000 cellular events in each sample were analyzed using DML program.
In general terms: Flow cytometry measures light scatter and fluorescence of single cells or particles in a stream.

The subject of the next experiment is HT-29 cells. The experiment is described as follows: Wound migration assay. The class given is cell-based, human. The note with it: 24 h, wound-healing; for inhibition at 10 µg/mL: Homo sapiens, HT-29, read-out: inhibition of cell migration. How it is done: For cell migration assay, HT-29 cells were seeded in six-well culture plates and allowed to grow to 80%–90% confluence for the experiment. After aspirating the medium, similar sized wounds were performed in the monolayer cells using a sterile micropipette tip. Wounded monolayer cells were washed three times with PBS to remove cell debris and then replaced with complete McCoy’s medium. HT-29 cells were treated with the AMTs (10 µg/mL for compounds 1, 2, 5, 6, 7, and 8, and 30 µg/mL for compounds 3 and 4) and incubated for 24h. For the image analysis of the effect of each treatment on cell migration, the wounded area was photographed immediately after scratching and after 24 h. The level of cell migration was determined using NIH Image software (Image J 1.44g, Wayne Rasband, USA) and then expressed as a percentage of wound closure area using the equation: Migration rate (%) = [(wound area at 0 h − wound area at 24 h)/wound area at 0 h] × 100%.

For the next experiment, the system named is p-ERK1/2 in HT-29 cells. The experiment is described as follows: Western blot of phosphorylated ERK1/2. It counts as cell-based, human. The note with it: 24 h; 10 and 20 μg/mL. The procedure: Cells were cultured to 80% confluence at 37 °C. After 24 h of treatment with the compounds (10 and 20 µg/mL for compounds 1, 2, 5, 6, 7, and 8, and 30 and 60 µg/mL for compounds 3 and 4), HT-29 cells were rinsed twice with ice-cold PBS, and then lysed immediately in lysis buffer (250 mM NaCl, 50 mM Tris (pH 7.5), 0.5 mM EDTA, 5 mM EGTA, 8 mM MgCl2, 1 mM PMSF, 0.01 mg/mL pepstatin A, 0.01 mg/mL leupeptin, 0.01 mg/mL aprotinin, 1% Triton X-100). After centrifugation at 12,000 g for 3 min at 4°C to separate the cellular debris, the supernatant was collected and stored at −80°C until use. The protein concentrations were determined using Bio-Rad Protein Assay (BioRad, Richmond, CA, USA), according to the manufacturer’s instructions.
Equal protein content (50 μg) samples of cell lysates were separated on 10% SDS–polyacrylamide gel and transferred to polyvinylidene difluoride membranes (Hybond-P, Amershan Biosciences, Little Chalfont, UK). The membranes were blocked with 5% (w/v) non-fat dry milk in Tris-buffered saline containing 0.1% Tween-20 buffer (pH 7.4) (TBST) for 1 h at room temperature and incubated with agitation with specific antibodies: anti-pERK1/2 (Cell Signaling; 1:1000), anti-pJNK (Cell Signaling; 1:1000), anti-pAKT (Cell Signaling; 1:1000), anti-β-actin (Sigma-Aldrich; 1:500). Membranes were incubated overnight at 4°C with gentle shaking. The secondary antibody was a peroxidase-conjugated goat anti-mouse or -rabbit antibody (1:10,000; DakoCytomation, Carpinteria, CA, USA). After washing the membrane three times in TBST buffer (10 min), the signals were detected using an enhanced chemiluminescence light-detecting kit (Super-Signal West Pico Chemiluminescent Substrate, Pierce, IL, USA), according to the manufacturer’s instructions and exposed to an X-ray film (GE Healthcare Ltd., Amersham, UK). The protein band densities were analyzed and quantified with a Scientific Imaging Systems (Biophotonics ImageJ Analysis Software, National Institute of Mental Health, Bethesda, MD, USA). β-actin was used to confirm the equal loading and transfer of proteins.
In general terms: Immunoblotting shows a protein as a band on a membrane.

Experiment [2] concerns HT-29 human colon carcinoma cells. Briefly: Sulforhodamine B (SRB) cell viability assay, HT-29. It counts as cell-based. The note with it: for IC50: Homo sapiens, HT-29, 72 h; for IC50 / IC50 HT-29: colon cancer cells, 72 h of treatment, SRB, mean ± SE of three experiments; for Selectivity Index (SI): IC50 for normal cells CCD 841 CoN / IC50 for cancer cells HT-29. How it is done:
as §1

As usually defined, the IC50 is the concentration that inhibits the measured activity by half. As to `COc1c(C)cc(O)cc1C/C=C(\C)CC(=O)/C=C(\C)CCCC(C)(O)C(=O)/C=C/C(C)(C)O` (centres unmarked) [Compound 2, 11-hydroxy-1′-O-methylamentadione], the IC50 in experiment [1] is 21.4 ± 2.5 µg/mL (≈ 45.3 µM). In the experiment with HT-29 colon cancer cells (30 μg/mL (Figure 3B)), this molecule showed an early apoptotic cells of 1.94% and a late apoptotic cells of 12.94%. In addition, the viability at 30 µg/mL in the experiment with HT-29 colon cancer cells (Homo sapiens, HT-29, 30 μg/mL (Figure 3B), read-out: viable cells) is 57.7%. The “inhibition of cell migration” value in the experiment with HT-29 cells (10 μg/mL) is on record as “no significant effects”. Further, the “p-ERK1/2 level vs control” value with p-ERK1/2 in HT-29 cells was “significantly reduced”. In experiment [2], the IC50 worked out at 9.14 ± 0.23 µg/mL (≈ 19.3 µM) and the “Selectivity Index (SI)” value worked out at 2.34.
Regarding `COc1c(C)cc(O)cc1C/C=C(\C)CC(=O)/C=C(\C)CCCC(C)=O` [Compound 3, cystomexicone B], in experiment [1], the IC50 was over 50 µg/mL. In the experiment with HT-29 colon cancer cells (90 μg/mL), the “early apoptotic cells (Annexin V+PI-)” value came to 4.47%, the “late apoptotic cells (Annexin V+PI+)” value is recorded as 52.12% and the “total percentage of apoptotic cells” value worked out at 56.6%. For the same molecule, the “inhibition of cell migration” value in the experiment with HT-29 cells (30 μg/mL (methods, Figure 5B)) is recorded as “no significant effects”. For the same molecule, in experiment [2], half-maximal inhibition (IC50) was put at 36.9 µg/mL (≈ 103 µM), the “Selectivity Index (SI)” value is over 1.45 and the “IC50 HT-29” value was determined as 34.34 ± 1.81 µg/mL (≈ 95.8 µM).
For `COc1c(C)cc(O)cc1C/C=C(\C)CC(=O)/C=C(/C)CCCC(C)(O)C(=O)/C=C/C(C)(C)O` (centres unmarked) [Compound 1, usneoidone Z], the IC50 in experiment [1] worked out at 46.4 ± 3.87 µg/mL (≈ 98.2 µM); in experiment [2] it was 8.81 ± 1.55 µg/mL (≈ 18.6 µM). Further, the “necrosis (dead cells)” value in the experiment with HT-29 colon cancer cells is reported as 31.22%. For the same molecule, in the experiment with HT-29 cells (10 μg/mL), the inhibition at 10 µg/mL stood at 28.4%. Besides, in the experiment with p-ERK1/2 in HT-29 cells, the “p-ERK1/2 level vs control” value is on record as “significantly reduced”. Further, the “Selectivity Index (SI)” value in experiment [2] is on record as 5.26.
Turning to `COc1c(C)cc(O)cc1/C=C/C(C)(O)CC(=O)/C=C(\C)CCCC(C)C(=O)/C=C/C(C)(C)O` (centres unmarked) [Compound 8, cystodione B], the half-inhibitory concentration (IC50) in experiment [1] came out at 31.9 ± 7.51 µg/mL (≈ 67.5 µM). Besides, the “necrosis (dead cells)” value in the experiment on HT-29 colon cancer cells was found to be 20.12%. The inhibition at 10 µg/mL with HT-29 cells (10 μg/mL) amounted to 59.1%. In addition, in the experiment on p-ERK1/2 in HT-29 cells, the “p-ERK1/2 level vs control” value was “significantly reduced”. Further, in experiment [2], half-maximal inhibition (IC50) was put at 9.14 µg/mL (≈ 19.3 µM), the “Selectivity Index (SI)” value turned out to be 3.51 and the “IC50 HT-29” value amounted to 9.08 ± 1.04 µg/mL (≈ 19.2 µM).
On to `COc1c(C)cc(O)cc1/C=C/C(C)(O)CC(=O)/C=C(/C)CCCC(C)C(=O)/C=C/C(C)(C)O` (centres unmarked) [Compound 7, cystodione A], for which the IC50 in experiment [1] is over 50 µg/mL; in experiment [2], 14 ± 1.33 µg/mL (≈ 29.6 µM). Also, the “induction of apoptosis or death of HT-29 cells” value in the experiment on HT-29 colon cancer cells (4 tested at 30-90 μg/mL, 7 at 10-30 μg/mL) is listed as “did not induce neither apoptosis nor death”. The inhibition at 10 µg/mL in the experiment with HT-29 cells (10 μg/mL) is 30.7%. In addition, the “p-ERK1/2 level vs control” value with p-ERK1/2 in HT-29 cells is recorded as “significantly reduced”. Further, the “Selectivity Index (SI)” value in experiment [2] is recorded as over 3.57.
